Assay results: PMC9946977, “Identification of linderalactone as a natural inhibitor of SHP2 to ameliorate CCl4-induced liver fibrosis” (Frontiers in Pharmacology, 2023)

Experiments:
SHP2-depleted LX-2 cells = assay: SHP2 knockdown (siRNA) LX-2 cells treated with LIN; format: cell-based, human; conditions: LX-2 cells transfected with SHP2 siRNA
Method: (§1) The LX-2 cell line was purchased from the Cell Bank Type Culture Collection of the Chinese Academy of Sciences (Shanghai, China). Cells were cultured in DMEM supplemented with 10% [v/v] foetal bovine serum, 2 mM glutamine, 100 U/ml penicillin, and […] streptomycin. SHP-2 and control siRNAs were obtained from Suzhou GenePharma Co., Ltd. (sense 5'-3': GAGAGAGGAAAGAGUAAAUTT; antisense 5'-3': AUUUACUCUUUCCUCUCUCTT). Transfection was performed according to the manufacturer’s instructions. Subsequent real-time PCR and western blotting were performed to analyse transfection efficiency.
Total RNA was extracted from liver tissues and LX-2 cells using the TRIzol reagent. cDNA was synthesised using a PrimeScript RT Master Mix kit. Real-time PCR was performed using SYBR Green premix according to the manufacturer’s instructions. Relative expression of target genes was normalised to actin, analysed by the delta-delta-CT method and given as a ratio compared with the vehicle control. Primer sequences used in this study are listed in Supplementary Material.

SHP2-PTP WT = biological target: T1, SHP2-PTP WT (Homo sapiens, UniProt Q06124); assay: BLI assay, wildtype SHP2-PTP; conditions: 1:1 binding model
T1 construct: Human SHP2 PTP domain (A237–I529) expression constructs; His-tag; made in house; host or cells: E. coli BL21 (DE3)
T1 sequence (Q06124 237-529): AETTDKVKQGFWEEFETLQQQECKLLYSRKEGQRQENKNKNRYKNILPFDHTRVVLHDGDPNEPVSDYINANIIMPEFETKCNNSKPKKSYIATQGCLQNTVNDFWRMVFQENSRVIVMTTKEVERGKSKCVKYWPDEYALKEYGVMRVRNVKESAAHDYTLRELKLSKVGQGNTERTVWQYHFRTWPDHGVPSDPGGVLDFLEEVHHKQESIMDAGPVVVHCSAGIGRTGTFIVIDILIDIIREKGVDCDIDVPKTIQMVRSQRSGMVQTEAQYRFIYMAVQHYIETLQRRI
Method: The BLI assay was performed using a FortéBio Octet 96 system. To label the biotin group on SHP2 proteins, NHS-PEG12-Biotin […] was added to the purified SHP2-PTP solution […] at 1.5:1 ratio for 2 h at 4°C. The reaction mixture was then loaded onto a column (GENEMORE, #G-MM-IGT) to remove excess free biotin. The biotin-labelled-SHP2-PTP protein was loaded onto super streptavidin (SSA) sensors (#18-5057, Octet) in a buffer containing […] 25 mM HEPES, 150 mM NaCl, and 0.02% (v/v) Tween-20. After equilibrium, the kinetics of the LIN and SHP2-PTP association were analysed by soaking the SSA sensors in a compound solution with various LIN concentrations for 300 s (6.25, 12.5, 25, 50, 100, and 200 μM), followed by 300 s of dissociation in the same HEPES buffer. The equilibrium constant (KD) values were assessed using the FortéBio data analysis software by fitting the kinetic data using a 1:1 binding model.

LX-2 cells = assay: LX-2 cells: fibrogenic gene expression and Smad2/3 phosphorylation; format: cell-based, human
Method: as §1
Total RNA was extracted from liver tissues and LX-2 cells using the TRIzol reagent. cDNA was synthesised using a PrimeScript RT Master Mix kit. […] Relative expression of target genes was normalised to actin, analysed by the delta-delta-CT method and given as a ratio compared with the vehicle control. […]
Liver proteins were isolated by using a lysis buffer containing 50 mM Tris-HCl (pH7.5), 150 mM NaCl, 1 mM EDTA, 20 mM NaF, 0.5% NP-40, 10% glycerol, 1 mM phenylmethylsulphonyl fluoride, 10 μg/mL aprotinin, 10 μg/mL leupeptin, and 10 μg/mL pepstatin. The supernatants were collected after centrifugation at 3,000 g for 10 min at 4°C, and the protein concentration of each sample was determined and normalised to the same protein concentration. […]

SMILES: C/C1=C\CCC2=C[C@@H](OC2=O)c2c(C)coc2C1 [LIN, linderalactone]
- sensitivity of fibrogenic gene expression to LIN treatment (SHP2-depleted LX-2 cells): much less sensitive
- Kd (SHP2-PTP WT): 666 µM
- fibrogenic gene expression (e.g., ACTA2, VIM, TGF-β, FN1, DES, COL1A1) (LX-2 cells; 10 μM LIN, 24 h, qPCR): significantly decreased
- phosphorylation level of smad2/3 (LX-2 cells; LIN 5 and 10 μM, Western blot): significant reduced
